Reference: patent publication US11279678B2 (SHANGHAI ECUST BIOMEDICINE CO., LTD., priority 2017, dated 2022)
Like-named read-outs stand apart in the source and are kept apart here.

Columns and labels:
[1] = in vivo; details: both, Kunming, mouse, po
Method: (§3) Acute Toxicity Test of Single Gastric Administration in Mice
(§4) Kunming mice (weight 17-22 g, equal male and female) were randomly grouped according to body weight, with 10 mice maximum per dose group in the experiment. […] Given by single intraperitoneal injection and a single intragastric injection, observations were done after 0.25 h, 0.5 h, 1 h, 2 h, 4 h, and 24 h respectively. The mortality rate was recorded. Afterward, the groups were observed once everyday, and the mortality rate was recorded for 14 days. On day 15, the living mice were sacrificed for pathological dissection.

[2] = system: human breast cancer cell MDA-MB-231; experiment: In vitro antitumor activity on tumor cell lines (CCK-8 method), MDA-MB-231; type: cell-based; details: MDA-MB-231, 72 hours
Method: (§1) Evaluation of In Vitro Antitumor Activity of Compounds on Multiple Tumor Cell Lines (CCK-8 Method)
(§2) Take the living cells with more than 90% cells for testing. The cell proliferation inhibition test was performed using the EnoGeneCell™ Counting Kit-8 (CK-8) cell viability test kit. The cell was digested, counted and prepared into a cell suspension with a concentration of 1×10^5/mL. 100 μL cell suspension (1×10^4 cells per hole) was added to each hole in the 96-well plate. The 96-well plate was cultured in a 37° C., 5% CO2 incubator for 24 hours. With every hole added with 100 μL respective drugged cultured medium, control groups were set up, including negative control group, solvent control group, and positive control group. Each group has 5 holes. The 96-well plates were cultured at 37° C., in 5% CO2 incubator for 72 hours. Afterward, 10 μL CCK-8 solution was added to each hole, and the culture plate was incubated in the incubator for 4 hours, and the OD value at 450 nm was determined by enzyme labeling instrument. The inhibition rate and IC50 value of these compounds on tumor cells such as human gastric cancer cell MGC-803, human liver cancer cell HepG2, human lung cancer cell A549 and human breast cancer cell MDA-MB-231 were calculated.

[3] = system: human lung cancer cell A549; experiment: In vitro antitumor activity on tumor cell lines (CCK-8 method), A549; type: cell-based; details: A549, 72 hours
Method: as §1, §2

[4] = system: human liver cancer cell HepG2; experiment: In vitro antitumor activity on tumor cell lines (CCK-8 method), HepG2; type: cell-based; details: HepG2, 72 hours
Method: as §1, §2

[5] = system: human gastric cancer cell MGC-803; experiment: In vitro antitumor activity on tumor cell lines (CCK-8 method), MGC-803; type: cell-based; details: MGC-803, 72 hours
Method: as §1, §2

[6] = system: Hela cervical cancer cell line; experiment: In vitro proliferation inhibition of Hela cervical cancer cell line (MTT method); type: cell-based; details: for IC50: Hela cervical cancer cell line
Method: Evaluation of In Vitro Antitumor Activity of Hela Cervical Cancer Tumor Cell Lines with Compounds (MTT Method)
The cells were cultured in RPMI1640 medium containing 200 mL/L fetal bovine serum so that the cells were kept at logarithmic growth. The cells were inoculated to 96-well plate, with a density of 4˜8×10^4/ml, 37° C., and pre-cultured for 24 hours with added drugs. The drugs were set at 6 concentrations, each has 3 holes. After 48 hours of consequent effect, the nutrient solution was then removed and the cells were left for air-drying. Each hole was then added with cold 500 g/L trichloroacetic acid (TCA) 50 μL (final concentration of 100 g/L). After setting for 60 minutes, it was then rinsed for 4-5 times with ionized water and dried. Each hole then was added with 4 g/L SRB 100 μL left for 30 mins. Then it was rinsed with 10 mL/L acetic acid for 4 times, dried. Then 10 mmol Tris-base 200 μL per hole was added, then shaked and mixed, subsequently, oscillating on the plate oscillator for 5 min. The enzyme-linked immunoassay was used to determine the A value. To calibrate, a blank control was used, with a wavelength of 490 nm. Tumor inhibition rate (%)=(Average A value of the control cell hole−Average A value of the drugged hole A)/Average A value of the control cell hole×100%. The positive control cell holes were CA4, CB1, and CB1N. To calculate the IC50 value, the Logit method was used according to the cell growth inhibition rate of different concentrations of the drug.

[7] = system: gastric cancer MGC-803 transplanted tumor; experiment: Antitumor rate of oral administration in mice with MGC-803 transplanted tumor; type: in vivo; details: for Tumor inhibition rate (%): d0-d12 every 2 days, 7 times, tumor weight; for tumor size course: about 8 days after administration
Method: Antitumor rate of oral administration of the compound towards MGC-803 mice with transplanted tumor
After 1 week of adaptation, the mice were inoculated with gastric cancer MGC-803 tumor tissue subcutaneously. After the tumor grew for 100-300 mm^3, the animals were randomly grouped. For the drug group, each group of each compound had 6 mice, and 12 mice were in the control group. The intragastric administration was employed and the dosage of Ii, Ij, Ik and Il was 25 and 50 mg/kg. The positive control was CA4, the administration time was d0, d2, d4, d6, d8, d10, d12 days, 7 times in total. The tumor size was measured 3 times per week, together with mice weight. The mice were executed 14 days after inoculation and the tumor mass was taken and measured for its weight. The tumor inhibition rate was calculated as tumor weight inhibition rate, and the formula is tumor weight inhibition rate %=(1-treatment group average tumor weight/control group average tumor weight)×100%.

[8] = single intragastric administration, mice
Method: as §3, §4

[9] = Homo sapiens, 48 hours drug exposure, read-out: IC50
[10] = Homo sapiens, read-out: IC50 values, Hela proliferation inhibition
[11] = 48 hours drug exposure, read-out: IC50

IC50 ([2]; Homo sapiens) [µM] | IC50 ([3]; Homo sapiens) [µM] | IC50 ([4]; Homo sapiens) [µM] | IC50 ([5]; Homo sapiens) [µM] | IC50 [6, 9] [µM] | Structure (SMILES) | further results
97 | 34.9 | 0.004 | 62.5 | 0.113 | O=c1[nH]cc(F)c(=O)[nH]1 [Compound 5-FU, 5-fluorouracil, reference compound] | IC50 [6, 10]: 0.113 µM
112 | 27.5 | 0.0124 | 64.2 | 0.046 | COc1ccc(/C=C\c2cc(OC)c(OC)c(OC)c2)cc1NC(=O)Cn1cc(F)c(=O)[nH]c1=O [Compound Ia, (Z)-2-(5-fluoro-2,4-dioxo-3,4-dihydropyrimidin-1(2H)-yl)-N-(2-methoxy-5-(3,4,5-trimethoxystyryl)-phenyl)acetamide] | –
3.21 | < 0.19 | < 0.19 | 1.86 | 0.0291 | COc1ccc(CCc2cc(OC)c(OC)c(OC)c2)cc1NC(=O)Cn1cc(F)c(=O)[nH]c1=O [Compound Ib, 2-(5-fluoro-2,4-dioxo-3,4-dihydropyrimidin-1(2H)-yl)-N-(5-(3,4,5-trimethoxyphenethyl)-2-methoxyphenyl)-acetamide] | –
122 | 57.9 | 150 | 48.5 | 0.029 | COc1ccc(C=Cc2cc(OC)c(OC)c(OC)c2)cc1NC(=O)CCn1cc(F)c(=O)[nH]c1=O [Compound Ic, 3-(5-fluoro-2,4-dioxo-3,4-dihydropyrimidin-1(2H)-yl)-N-(5-(3,4,5-trimethoxystyryl)-2-methoxyphenyl)-propanamide] | proliferation inhibitory activity on Hela compared to 5-fluorouracil ([6]; ratio to 5-fluorouracil): 4 times; proliferation inhibitory activity on Hela compared to CA4 ([6]; ratio to CA4): 14 times
– | – | – | – | – | COc1ccc(CCc2cc(OC)c(OC)c(OC)c2)cc1NC(=O)CCn1cc(F)c(=O)[nH]c1=O [Compound Id, 3-(5-fluoro-2,4-dioxo-3,4-dihydropyrimidin-1(2H)-yl) N-(5-(3,4,5-trimethoxyphenethyl)-2-methoxyphenyl)-propanamide] | IC50 [2]: 70.2 µM; IC50 [3]: 38 µM; IC50 [4]: 110 µM; IC50 [5]: 50.6 µM; IC50 [6, 11]: 0.0298 µM
– | – | – | – | 0.0688 | COc1ccc(C=Cc2cc(OC)c(OC)c(OC)c2)cc1NC(=O)CCCn1cc(F)c(=O)[nH]c1=O [Compound Ie, 4-(5-fluoro-2,4-dioxo-3,4-dihydropyrimidin-1(2H)-yl)-N-(5-(3,4,5-trimethoxystyryl)-2-methoxyphenyl)-butanamide] | –
– | – | – | – | 0.0288 | COc1ccc(CCc2cc(OC)c(OC)c(OC)c2)cc1NC(=O)CCCn1cc(F)c(=O)[nH]c1=O [Compound If, 4-(5-fluoro-2,4-dioxo-3,4-dihydropyrimidin-1(2H)-yl)-N-(5-(3,4,5-trimethoxyphenethyl)-2-methoxyphenyl)-butanamide] | –
60.2 | 59.9 | 39.4 | 25.8 | 0.0471 | CCOc1ccc(CCc2cc(OC)c(OC)c(OC)c2)cc1NC(=O)Cn1cc(F)c(=O)[nH]c1=O [Compound Ig, N-(5-(3,4,5-trimethoxyphenethyl)-2-ethoxyphenyl)-2-(5-fluoro-2,4-dioxo-3,4-dihydropyrimidin-1(2H)-yl)acetamide] | –
60.6 | 15.2 | 171 | 23.2 | > 0.37 | CCOc1ccc(CCc2cc(OC)c(OC)c(OC)c2)cc1NC(=O)CCn1cc(F)c(=O)[nH]c1=O [Compound Ih, N-(5-(3,4,5-trimethoxyphenethyl)-2-ethoxyphenyl)-3-(5-fluoro-2,4-dioxo-3,4-dihydropyrimidin-1(2H)-yl)propanamide] | –
– | – | – | – | – | COc1ccc(/C=C\c2cc(OC)c(OC)c(OC)c2)cc1OC(=O)Cn1cc(F)c(=O)[nH]c1=O [Compound Ii, (Z)-2-methoxy-5-(3,4,5-trimethoxystyryl)-phenyl-2-(5-fluoro-2,4-dioxo-3,4-dihydropyrimidin-1(2H)-yl)acetate] | Tumor inhibition rate (%) ([7]; 25 mg/kg intragastric): 62%; Tumor inhibition rate (%) ([7]; 50 mg/kg intragastric): 85%; tumor size course [7]: tendency to shrink; IC50 [2]: 0.4 µM; IC50 [3]: < 0.0003 µM; IC50 [4]: 0.0228 µM; IC50 [5]: < 0.0003 µM; IC50 [6, 11]: 0.0314 µM; LD50 [8]: 1059 mg/kg
– | – | – | – | – | COc1ccc(CCc2cc(OC)c(OC)c(OC)c2)cc1OC(=O)Cn1cc(F)c(=O)[nH]c1=O [Compound Ij, 2-methoxy-5-(3,4,5-trimethoxyphenethyl)-phenyl-2-(5-fluoro-2,4-dioxo-3,4-dihydropyrimidin-1(2H)-yl)acetate] | Tumor inhibition rate (%) ([7]; 25 mg/kg intragastric): 53%; Tumor inhibition rate (%) ([7]; 50 mg/kg intragastric): 80%; tumor size course [7]: tendency to shrink; IC50 [2]: 15.4 µM; IC50 [3]: < 0.0003 µM; IC50 [4]: 0.141 µM; IC50 [5]: < 0.0003 µM; IC50 [6, 11]: 0.0323 µM; LD50 [8]: 1015 mg/kg
102 | 4.26 | 468 | 19.3 | 0.04 | CCOc1ccc(CCc2cc(OC)c(OC)c(OC)c2)cc1OC(=O)Cn1cc(F)c(=O)[nH]c1=O [Compound In, 5-(3,4,5-trimethoxyphenethyl)-2-ethoxyphenyl 2-(5-fluoro-2,4-dioxo-3,4-dihydropyrimidin-1(2H)-yl)acetate] | –
2.57 | 0.0003 | 0.0017 | 0.609 | 0.0343 | CCOc1ccc(CCc2cc(OC)c(OC)c(OC)c2)cc1OC(=O)CCn1cc(F)c(=O)[nH]c1=O [Compound Io, 5-(3,4,5-trimethoxyphenethyl)-2-ethoxyphenyl-3-(5-fluoro-2,4-dioxo-3,4-dihydropyrimidin-1(2H)-yl)propanoate] | –
– | – | – | – | – | COc1ccc(CCc2cc(OC)c(OC)c(OC)c2)cc1O [Erianin, reference compound] | LD50 [8]: 2531 mg/kg

Structure (SMILES) | IC50 ([2]; Homo sapiens) [µM] | IC50 ([3]; Homo sapiens) [µM] | IC50 ([4]; Homo sapiens) [µM] | IC50 ([5]; Homo sapiens) [µM] | IC50 [6, 9] [µM] | further results
COc1ccc(/C=C\c2cc(OC)c(OC)c(OC)c2)cc1O [CA4, combretastatin A-4, reference compound] | 0.0033 | 0.00254 | 1280 | 0.0206 | 0.4 | LD50 [1]: 1280 mg/kg; IC50 [6, 10]: 0.4 µM
COc1ccc(/C=C\c2cc(OC)c(OC)c(OC)c2)cc1OC(=O)CCn1cc(F)c(=O)[nH]c1=O [Compound Ik, (Z)-5-(3,4,5-trimethoxystyryl)-2-methoxyphenyl-3-(5-fluoro-2,4-dioxo-3,4-dihydropyrimidin-1(2H)-yl)propanoate] | 80.7 | < 0.0003 | 7.33 | < 0.0003 | 0.0296 | Tumor inhibition rate (%) ([7]; 25 mg/kg intragastric): 48%; Tumor inhibition rate (%) ([7]; 50 mg/kg intragastric): 75%; tumor size course [7]: tendency to shrink; LD50 at 14 days [1]: > 1000 mg/kg; LD50 [8]: 1185 mg/kg
COc1ccc(/C=C\c2cc(OC)c(OC)c(OC)c2)cc1OC(=O)CCCn1cc(F)c(=O)[nH]c1=O [Compound Im, (Z)-2-methoxy-5-(3,4,5-trimethoxystyryl)-phenyl-4-(5-fluoro-2,4-dioxo-3,4-dihydropyrimidin-1(2H)-yl)butanoate] | – | – | – | – | 0.03 | –
